In patent US8487121B2, “Chromane derivatives as TRPV3 modulators” (Glenmark Pharmaceuticals S.A., priority 2007, dated 2013):

Target: T1, Human TRPV3 (Homo sapiens, UniProt Q8NET8)
T1 construct: expressed in transfected cells; host or cells: CHO cells (G-418 selected)
T1 sequence (Q8NET8 1-790): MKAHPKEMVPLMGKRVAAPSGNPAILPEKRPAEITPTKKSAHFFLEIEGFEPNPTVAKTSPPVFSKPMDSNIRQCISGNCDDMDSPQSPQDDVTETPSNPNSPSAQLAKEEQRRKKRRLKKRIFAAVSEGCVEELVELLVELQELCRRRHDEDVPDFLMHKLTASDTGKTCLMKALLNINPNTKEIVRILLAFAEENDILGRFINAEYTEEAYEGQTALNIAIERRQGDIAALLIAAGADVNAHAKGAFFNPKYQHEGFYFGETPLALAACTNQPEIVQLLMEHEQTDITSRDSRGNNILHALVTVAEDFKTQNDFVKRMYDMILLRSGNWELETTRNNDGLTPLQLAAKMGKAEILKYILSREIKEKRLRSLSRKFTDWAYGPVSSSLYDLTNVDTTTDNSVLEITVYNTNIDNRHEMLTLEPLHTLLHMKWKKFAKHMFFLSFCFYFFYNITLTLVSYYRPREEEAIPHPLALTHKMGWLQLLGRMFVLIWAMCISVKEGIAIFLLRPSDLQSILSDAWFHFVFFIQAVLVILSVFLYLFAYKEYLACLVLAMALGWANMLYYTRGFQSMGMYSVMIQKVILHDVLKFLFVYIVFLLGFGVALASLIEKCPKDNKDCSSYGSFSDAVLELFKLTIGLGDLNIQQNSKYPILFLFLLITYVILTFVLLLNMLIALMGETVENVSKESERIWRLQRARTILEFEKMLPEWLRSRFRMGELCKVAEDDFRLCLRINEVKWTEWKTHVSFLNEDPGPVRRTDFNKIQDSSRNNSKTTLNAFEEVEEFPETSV
Assay: 45Calcium uptake assay: inhibition of 2-APB induced cellular uptake of radioactive calcium
Assay type: cell-based
Conditions: human TRPV3 expressing CHO cells, 2-APB 500 μM; for inhibition at 1 µM: 1.0 μM compound, read-out: Percentage inhibition at 1.0 μM; for inhibition at 10 µM: 10.0 μM compound, read-out: Percentage inhibition at 10.0 μM
Summary of the method: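 CHO cells stably expressing human TRPV3 (~50,000/well) were preincubated with compounds for 10 min in medium containing 0.1% BSA, 1.8 mM CaCl2 and 0.5% DMSO. Then 500 μM 2-APB and 5 μCi/ml 45Ca2+ were added for 4 min. Lysate radioactivity was expressed as % of maximal uninhibited response, and IC50 came from nonlinear regression, alongside % inhibition at 1.0 and 10.0 μM.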

Row | inhibition at 1 µM [%] | inhibition at 10 µM [%] | IC50 [nM] | Structure (SMILES)
1 | 39.4 | 81.8 | – | O=C(CCc1c[nH]c2ccccc12)NC1CC2(CCC2)Oc2ccc(Cl)cc21 (stereo not drawn) [Example 77, N-(6-Chloro-3,4-dihydrospiro[chromene-2,1′-cyclobutan]-4-yl)-3-(1H-indol-3-yl)-propanamide]
2 | 46.1 | 91.3 | 500 to 1000 | COc1ccc(CCC(=O)NC2CC3(CCC3)Oc3ccc(Cl)cc32)c2cc(C)oc12 (stereo not drawn) [Example 78, N-(6-chloro-3,4-dihydrospiro[chromene-2,1′-cyclobutan]-4-yl)-3-(2-methyl, 7-methoxy-1-benzofuran-4-yl)propanamide]
3 | 51.5 | 95.5 | – | COc1cc(CCC(=O)N[C@@H]2CC3(CCC3)Oc3ccc(Cl)cc32)cc2cc(C)oc12 [Example 79, N-[(4R)-6-Chloro-3,4-dihydrospiro[chromene-2,1′-cyclobutan]-4-yl]-3-(7-methoxy-2-methyl-1-benzofuran-5-yl)propanamide]
4 | 73.5 | 98.6 | 500 to 1000 | COc1cc(CCC(=O)N[C@H]2CC3(CCC3)Oc3ccc(Cl)cc32)cc2cc(C)oc12 [Example 80, N-[(4S)-6-chloro-3,4-dihydrospiro[chromene-2,1′-cyclobutan]-4-yl]-3-(7-methoxy-2-methyl-1-benzofuran-5-yl)propanamide]
5 | 29.1 | 54.8 | – | O=C(CCc1ccc2c(c1)OCCO2)NC1CC2(CCC2)Oc2ccc(F)cc21 (stereo not drawn) [Example 81]
6 | 24.3 | 90.9 | – | O=C(CCc1cccc2c1OCO2)NC1CC2(CCC2)Oc2ccc(Cl)cc21 (stereo not drawn) [Example 82, 3-(1,3-Benzodioxol-4-yl)-N-[6-chloro-3,4-dihydrospiro[chromene-2,1′-cyclobutan]-4-yl]propanamide]
7 | 11 | 83.2 | – | O=C(CCc1cccc2c1OCO2)NC1CC2(CCC2)Oc2c(Cl)cccc21 (stereo not drawn) [Example 83, 3-(1,3-Benzodioxol-4-yl)-N-(8-chloro-3,4-dihydrospiro[chromene-2,1′-cyclobutan]-4-yl)propanamide]
8 | 11 | 83.2 | – | O=C(CCc1cccc2c1OCCO2)NC1CC2(CCC2)Oc2ccc(Cl)cc21 (stereo not drawn) [Example 84]
9 | 76.9 | 90.4 | < 500 | O=C(CCc1cccc2c1oc1ccccc12)NC1CC2(CCC2)Oc2ccc(Cl)cc21 (stereo not drawn) [Example 85, N-(6-Chloro-3,4-dihydrospiro[chromene-2,1′-cyclobutan]-4-yl)-3-(dibenzo[b,d]furan-4-yl)propanamide]
10 | 11.6 | 66 | – | COc1cccc(CCC(=O)NC2CC3(CCCC3)Oc3ccc(Cl)cc32)c1OC1CCCC1 (stereo not drawn) [Example 86, N-(6-Chloro-3,4-dihydrospiro[chromene-2,1′-cyclopentan]-4-yl)-3-(2-cyclopentyloxy-3-methoxy)propanamide]
11 | 26.7 | 67.3 | – | COc1cccc(CCC(=O)NC2CC3(CCCCC3)Oc3ccc(Cl)cc32)c1OC1CCCC1 (stereo not drawn) [Example 87, N-(6-Chloro-3,4-dihydrospiro[chromene-2,1′-cyclohexan]-4-yl)-3-(2-cyclopentyloxy-3-methoxy)phenylpropanamide]
12 | 17.1 | 93.2 | – | COc1cccc(CCC(=O)NC2CC(C)(C)Oc3ccccc32)c1OC1CCCC1 (stereo not drawn) [Example 88, N-(2,2-Dimethyl-3,4-dihydro-2H-chromen-4-yl)-3-(2-cyclopentyloxy-3-methoxy)phenylpropanamide]
13 | 38 | 87.3 | – | COc1cccc(CCC(=O)NC2CCSc3ccc(Cl)cc32)c1OC1CCCC1 (stereo not drawn) [Example 89, N-(6-chloro-3,4-dihydro-2H-thiochromen-4-yl)-3-(2-cyclopentyloxy-3-methoxyphenyl)-propanamide]
14 | 49.2 | 91.4 | – | COc1ccc2ccccc2c1CCC(=O)NC1CCSc2ccc(Cl)cc21 (stereo not drawn) [Example 90, N-(6-chloro-3,4-dihydro-2H-thiochromen-4-yl)-3-(2-methoxy-1-naphthyl)propanamide]
15 | 51 | 82.5 | – | O=C(CCCc1ccccc1OC1CCCC1)NC1CC2(CCC2)Oc2ccc(Cl)cc21 (stereo not drawn) [Example 91, N-(6-Chloro-3,4-dihydrospiro[chromene-2,1′-cyclobutan]-4-yl)-4-(2-cyclopentyloxy-phenyl)butanamide]
16 | 86.1 | 95.8 | < 500 | COc1cccc(CCCC(=O)NC2CC3(CCC3)Oc3ccc(Cl)cc32)c1OC1CCCC1 (stereo not drawn) [Example 92, N-(6-Chloro-3,4-dihydrospiro[chromene-2,1′-cyclobutan]-4-yl)-4-[2-(cyclopentyloxy)-3-methoxyphenyl]butanamide]
17 | 72.8 | 94.2 | 500 to 1000 | COc1cccc(CCCC(=O)N[C@@H]2CC3(CCC3)Oc3ccc(Cl)cc32)c1OC1CCCC1 [Example 93, N-(4R)-6-Chloro-3,4-dihydrospiro[chromene-2,1′-cyclobutan]-4-yl-4-(2-cyclopentyloxy-3-methoxyphenyl)butanamide]
18 | 79.7 | 97.2 | < 500 | COc1cccc(CCCC(=O)N[C@H]2CC3(CCC3)Oc3ccc(Cl)cc32)c1OC1CCCC1 [Example 94]
19 | 71.8 | 96.5 | 500 to 1000 | COc1cccc(CCCC(=O)N[C@@H]2CC3(CCC3)Oc3c(Cl)cccc32)c1OC1CCCC1 [Example 95, (4R)—N-(8-Chloro-3,4-dihydrospiro[chromene-2,1′-cyclobutan]-4-yl)-4-(2-cyclopentyloxy-3-methoxyphenyl)butanamide]
20 | 44.4 | 80.9 | – | COc1cccc(CCCC(=O)N[C@H]2CC3(CCC3)Oc3c(Cl)cccc32)c1OC1CCCC1 [Example 96, (4S)—N-(8-Chloro-3,4-dihydrospiro[chromene-2,1′-cyclobutan]-4-yl)-4-(2-cyclopentyloxy-3-methoxyphenyl)butanamide]
21 | 60 | 90.3 | 1000 to 2000 | COc1cccc(CCCC(=O)NC2CC3(CCC3)Oc3c(Cl)cc(F)cc32)c1OC1CCCC1 (stereo not drawn) [Example 97, N-(8-Chloro-6-fluoro-3,4-dihydrospiro[chromene-2,1′-cyclobutan]-4-yl)-4-(2-cyclopentyloxy-3-methoxyphenyl)butanamide]
22 | 36.9 | 69.5 | – | COc1cccc(CCCC(=O)NC2CC3(CCC3)Oc3c(Cl)cc(Cl)cc32)c1OC1CCCC1 (stereo not drawn) [Example 98, N-(6,8-Dichloro-3,4-dihydrospiro[chromene-2,1′-cyclobutan]-4-yl)-4-(2-cyclopentyloxy-3-methoxyphenyl)butanamide]
23 | 19.9 | 19.6 | – | COc1cccc(CCCC(=O)NC2CC3(CCC3)Oc3cc(OCc4ccccc4)ccc32)c1OC1CCCC1 (stereo not drawn) [Example 99, N-(7-Benzyloxy-3,4-dihydrospiro[chromene-2,1′-cyclobutan]-4-yl)-4-(2-cyclopentyloxy-3-methoxyphenyl)butanamide]
24 | 19.4 | 87 | – | COc1cccc(CCCC(=O)NC2CC3(CCC3)Oc3cc(O)ccc32)c1OC1CCCC1 (stereo not drawn) [Example 100, N-(7-Hydroxy-3,4-dihydrospiro[chromene-2,1′-cyclobutan]-4-yl)-4-(2-cyclopentyloxy-3-methoxyphenyl)butanamide]
25 | 26.5 | 63.2 | – | COc1ccc(C(=O)CCC(=O)NC2CC3(CCC3)Oc3ccc(Cl)cc32)c2ccccc12 (stereo not drawn) [Example 101, N-(6-Chloro-3,4-dihydrospiro[chromene-2,1′-cyclobutan]-4-yl)-4-oxo-4-(4-methoxy-naphthyl)butanamide]
26 | 26.6 | 42.8 | – | COc1ccc(C(O)CCC(=O)NC2CC3(CCC3)Oc3ccc(Cl)cc32)c2ccccc12 (stereo not drawn) [Example 102, N-(6-Chloro-3,4-dihydrospiro[chromene-2,1′-cyclobutan]-4-yl)-4-hydroxy-4-(4-methoxynaphthyl)butanamide]
27 | 69.4 | 96.4 | 500 to 1000 | COc1cccc(CCCC(=O)NC2CC(C)(C)Oc3ccc(Cl)cc32)c1OC1CCCC1 (stereo not drawn) [Example 103, N-(6-Chloro-2,2-dimethyl-3,4-dihydro-2H-chromen-4-yl)-4-(2-cyclopentyloxy-3-methoxy)phenylbutanamide]
